Experimental data reported in paper PMC8508710, “Biochemical Characterization of 13-Lipoxygenases of Arabidopsis thaliana” (International Journal of Molecular Sciences, 2021).
“And” between values parts separate entries of the source, which are not always exact repeats. Equal values may be shown once.

Columns and labels:
LOX2 [1] = molecular target: T1, LOX2 (Arabidopsis thaliana, UniProt P38418); test: LOX2 activity, spectrophotometric (conjugated diene formation at 234 nm); details: substrate specificity; 31 µM PUFA, 4 µg 13-LOX, 50 mM Tris-HCl pH 7.2; LeA = 100%
T1 sequence (P38418 71-896): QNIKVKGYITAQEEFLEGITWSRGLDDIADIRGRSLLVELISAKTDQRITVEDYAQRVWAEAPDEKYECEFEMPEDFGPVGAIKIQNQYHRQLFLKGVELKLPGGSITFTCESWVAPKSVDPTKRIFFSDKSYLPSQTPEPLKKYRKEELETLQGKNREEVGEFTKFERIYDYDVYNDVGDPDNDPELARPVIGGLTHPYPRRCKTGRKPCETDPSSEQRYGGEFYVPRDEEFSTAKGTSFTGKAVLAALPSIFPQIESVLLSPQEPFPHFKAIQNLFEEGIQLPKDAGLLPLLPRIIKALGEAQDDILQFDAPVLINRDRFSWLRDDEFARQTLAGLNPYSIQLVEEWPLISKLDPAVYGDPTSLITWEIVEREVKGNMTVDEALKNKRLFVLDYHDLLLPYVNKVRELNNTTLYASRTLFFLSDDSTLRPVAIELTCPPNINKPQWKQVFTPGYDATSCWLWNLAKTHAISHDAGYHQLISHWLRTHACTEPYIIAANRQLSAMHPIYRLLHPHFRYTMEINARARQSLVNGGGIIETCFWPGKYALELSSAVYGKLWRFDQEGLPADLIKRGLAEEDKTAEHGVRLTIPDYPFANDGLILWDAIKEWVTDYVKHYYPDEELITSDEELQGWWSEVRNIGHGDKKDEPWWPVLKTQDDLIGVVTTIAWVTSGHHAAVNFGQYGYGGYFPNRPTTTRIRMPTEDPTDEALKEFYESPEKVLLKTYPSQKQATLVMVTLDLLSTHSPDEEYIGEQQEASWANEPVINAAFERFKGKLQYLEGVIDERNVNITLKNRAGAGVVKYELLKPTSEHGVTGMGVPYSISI

LOX4 [2] = molecular target: T2, LOX4 (Arabidopsis thaliana, UniProt Q9FNX8); test: LOX4 activity, spectrophotometric (conjugated diene formation at 234 nm); details: substrate specificity; 31 µM PUFA, 4 µg 13-LOX, 50 mM Tris-HCl pH 7.2; LeA = 100%
T2 sequence (Q9FNX8 71-926): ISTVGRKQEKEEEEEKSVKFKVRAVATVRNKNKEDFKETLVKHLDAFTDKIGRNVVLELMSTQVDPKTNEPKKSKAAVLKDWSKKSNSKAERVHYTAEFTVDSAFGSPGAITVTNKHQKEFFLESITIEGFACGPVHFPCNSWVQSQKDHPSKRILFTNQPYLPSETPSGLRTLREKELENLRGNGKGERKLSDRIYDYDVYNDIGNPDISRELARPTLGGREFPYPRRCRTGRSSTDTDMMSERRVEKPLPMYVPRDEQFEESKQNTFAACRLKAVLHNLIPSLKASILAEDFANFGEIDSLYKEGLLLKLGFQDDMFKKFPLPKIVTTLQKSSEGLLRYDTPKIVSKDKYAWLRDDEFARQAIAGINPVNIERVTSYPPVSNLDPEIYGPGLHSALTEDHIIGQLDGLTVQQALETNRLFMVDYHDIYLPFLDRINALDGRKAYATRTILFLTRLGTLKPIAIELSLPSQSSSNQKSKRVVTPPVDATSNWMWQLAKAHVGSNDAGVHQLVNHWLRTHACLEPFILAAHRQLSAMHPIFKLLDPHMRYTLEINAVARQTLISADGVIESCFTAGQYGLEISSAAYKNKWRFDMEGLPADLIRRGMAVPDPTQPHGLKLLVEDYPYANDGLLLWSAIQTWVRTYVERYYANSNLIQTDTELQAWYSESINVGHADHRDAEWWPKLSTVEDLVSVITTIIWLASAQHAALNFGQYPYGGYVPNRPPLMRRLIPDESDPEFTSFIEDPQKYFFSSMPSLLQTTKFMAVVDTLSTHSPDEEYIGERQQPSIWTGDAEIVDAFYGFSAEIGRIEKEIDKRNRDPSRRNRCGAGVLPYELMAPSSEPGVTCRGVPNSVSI

LOX3 [3] = molecular target: T3, LOX3 (Arabidopsis thaliana, UniProt Q9LNR3); test: LOX3 activity, spectrophotometric (conjugated diene formation at 234 nm); details: substrate specificity; 31 µM PUFA, 4 µg 13-LOX, 50 mM Tris-HCl pH 7.2; LeA = 100%
T3 sequence (Q9LNR3 71-919): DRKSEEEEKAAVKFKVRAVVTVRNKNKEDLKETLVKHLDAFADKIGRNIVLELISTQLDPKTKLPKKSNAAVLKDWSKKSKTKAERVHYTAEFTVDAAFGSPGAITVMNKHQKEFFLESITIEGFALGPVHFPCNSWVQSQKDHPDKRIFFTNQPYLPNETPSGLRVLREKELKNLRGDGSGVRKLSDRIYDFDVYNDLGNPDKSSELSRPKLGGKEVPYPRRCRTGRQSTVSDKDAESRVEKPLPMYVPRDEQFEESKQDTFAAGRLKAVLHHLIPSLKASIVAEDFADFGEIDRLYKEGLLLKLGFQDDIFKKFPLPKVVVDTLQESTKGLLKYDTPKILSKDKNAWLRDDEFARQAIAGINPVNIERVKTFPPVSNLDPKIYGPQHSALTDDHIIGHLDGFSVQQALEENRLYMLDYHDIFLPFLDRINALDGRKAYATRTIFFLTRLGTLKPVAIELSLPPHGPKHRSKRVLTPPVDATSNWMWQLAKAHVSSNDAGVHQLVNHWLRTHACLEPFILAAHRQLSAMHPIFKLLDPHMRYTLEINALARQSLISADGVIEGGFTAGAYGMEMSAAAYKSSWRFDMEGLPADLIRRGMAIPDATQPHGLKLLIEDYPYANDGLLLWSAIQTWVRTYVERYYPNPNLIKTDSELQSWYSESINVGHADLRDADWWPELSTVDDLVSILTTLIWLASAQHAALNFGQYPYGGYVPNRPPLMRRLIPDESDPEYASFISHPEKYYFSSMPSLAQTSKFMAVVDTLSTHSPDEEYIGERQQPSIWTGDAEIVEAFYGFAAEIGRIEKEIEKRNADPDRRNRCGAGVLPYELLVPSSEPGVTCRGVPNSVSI

LOX6 [4] = molecular target: T4, LOX6 (Arabidopsis thaliana, UniProt Q9CAG3); test: LOX6 activity, spectrophotometric (conjugated diene formation at 234 nm); details: substrate specificity; 31 µM PUFA, 4 µg 13-LOX, 50 mM Tris-HCl pH 7.2; LeA = 100%
T4 sequence (Q9CAG3 41-917): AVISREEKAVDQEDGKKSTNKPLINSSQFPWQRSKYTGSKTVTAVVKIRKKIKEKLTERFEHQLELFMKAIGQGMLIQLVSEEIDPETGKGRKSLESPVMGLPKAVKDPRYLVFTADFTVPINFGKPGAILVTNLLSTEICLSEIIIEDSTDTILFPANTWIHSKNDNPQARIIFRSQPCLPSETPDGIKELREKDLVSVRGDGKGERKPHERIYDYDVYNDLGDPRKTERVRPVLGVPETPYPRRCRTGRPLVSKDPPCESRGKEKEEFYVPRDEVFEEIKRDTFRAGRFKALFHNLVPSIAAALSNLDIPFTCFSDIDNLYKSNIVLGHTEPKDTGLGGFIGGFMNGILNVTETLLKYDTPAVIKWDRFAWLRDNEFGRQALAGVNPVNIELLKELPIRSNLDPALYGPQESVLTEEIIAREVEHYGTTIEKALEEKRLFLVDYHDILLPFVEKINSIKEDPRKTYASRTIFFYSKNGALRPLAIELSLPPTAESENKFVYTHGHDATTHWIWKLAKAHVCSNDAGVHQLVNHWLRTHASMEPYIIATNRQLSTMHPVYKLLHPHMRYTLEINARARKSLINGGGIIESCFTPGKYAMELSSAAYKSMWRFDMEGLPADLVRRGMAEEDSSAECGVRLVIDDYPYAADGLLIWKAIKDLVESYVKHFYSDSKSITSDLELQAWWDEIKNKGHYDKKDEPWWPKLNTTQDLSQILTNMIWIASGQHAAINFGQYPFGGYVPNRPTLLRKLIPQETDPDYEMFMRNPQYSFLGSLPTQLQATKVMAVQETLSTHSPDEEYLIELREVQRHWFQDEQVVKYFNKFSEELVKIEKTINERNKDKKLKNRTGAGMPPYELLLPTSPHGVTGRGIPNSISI

LOX2 [5] = molecular target: T1, LOX2; parameters: made in house; host or cells: E. coli Nico21(DE3), pET15b; method as in PMID 18949503; details: cited from earlier work
LOX2 [6] = molecular target: T1, LOX2; test: LOX2 activity, oxygen electrode (polarography); assay type: biochemical; parameters: made in house; host or cells: E. coli Nico21(DE3), pET15b; details: 100 µM metal salt, LeA 30 µM in 20 mM HEPES pH 8.0, oxygen consumption vs control
LOX4 [7] = molecular target: T2, LOX4; test: LOX4 activity, oxygen electrode (polarography); assay type: biochemical; parameters: made in house; host or cells: E. coli Nico21(DE3), pET15b; details: 100 µM metal salt, LeA 30 µM in 20 mM HEPES pH 8.0, oxygen consumption vs control
LOX3 [8] = molecular target: T3, LOX3; test: LOX3 activity, oxygen electrode (polarography); assay type: biochemical; parameters: made in house; host or cells: E. coli Nico21(DE3), pET15b; details: 100 µM metal salt, LeA 30 µM in 20 mM HEPES pH 8.0, oxygen consumption vs control
LOX6 [9] = molecular target: T4, LOX6; test: LOX6 activity, oxygen electrode (polarography); assay type: biochemical; parameters: made in house; host or cells: E. coli Nico21(DE3), pEXP5-NT/TOPO; details: 100 µM metal salt, LeA 30 µM in 20 mM HEPES pH 8.0, oxygen consumption vs control

SMILES	Relative Activity (%) LOX2 (LOX2 [1])	Relative Activity (%) LOX4 (LOX4 [2]) [%]	Relative Activity (%) LOX3 (LOX3 [3]) [%]	Relative Activity (%) LOX6 (LOX6 [4]) [%]	LOX2 activity with PUFA (relative) (LOX2 [5])	Relative Activity (%) LOX2 (LOX2 [6]) [%]	Relative Activity (%) LOX2 (LOX2 [6]; listed as Cu^2+)	Relative Activity (%) LOX4 (LOX4 [7])	Relative Activity (%) LOX4 (LOX4 [7]; listed as Cu^2+)	Relative Activity (%) LOX3 (LOX3 [8])	Relative Activity (%) LOX3 (LOX3 [8]; listed as Cu^2+)	Relative Activity (%) LOX6 (LOX6 [9])	Relative Activity (%) LOX6 (LOX6 [9]; listed as Cu^2+)
CCCCC/C=C\C/C=C\C/C=C\C/C=C\CCCC(=O)O [ARA, arachidonic acid]	50% and 50 ± 4%	4 ± 1	5 ± 1	8 ± 3	~ 15%								
[Cl][Cu][Cl] [CuCl2]						50 ± 20	strongly decreased	no activity	abolished	no activity	abolished	no activity	abolished
CC/C=C\C/C=C\C/C=C\C/C=C\C/C=C\C/C=C\CCC(=O)O [DHA, docosahexaenoic acid]	56 ± 3%	8 ± 1	7 ± 1	31 ± 3									
